In patent US11472804B2, “Compositions and methods for modulating hair growth” (The Regents of the University of California, priority 2017, dated 2022):
Entries after “also recorded” stand apart in the source; their conditions may differ.

What was measured:
hair cycle = assay: Topical treatment of mice in telogen with UK-5099, hair cycle; format: in vivo
Experimental: (§1) FIG. 7A: Animals treated topically with UK-5099 (20 μM) show pigmentation and hair growth, indicative of entry into anagen, after 8 days of treatment. Full anagen, indicated by full coat of hair, is achieved after 14 days of treatment. […] Images shown are representative of at least 14 mice from 7 independent experiments. Scale bars indicate 100 micrometers. FIG. 7B: Graph showing time to observed phenotype in vehicle versus UK-5099 treated mice. n=6 mice per condition. Shown as mean±SEM. […] Ldh activity is indicated by purple stain; pink is nuclear fast red counterstain. Scale bars indicate 50 micrometers. FIG. 7D: Metabolomic analysis of Lactate on HFSCs isolated from UK-5099 treated skin for 48 hours; Each bar represents the average signal for each condition where n=9 mice pooled from 3 independent experiments. Shown as mean±SEM. Paired t-test was performed, p<0.05.
(§2) Quantification of the hair cycle across at least 6 pairs of animals (vehicle vs UK-5099) indicated a strong acceleration of the hair cycle, in as few as 6-9 days (FIG. 7B).

Ldh = Ldh enzyme activity assay in the epidermis of topically treated animals; format: in vivo, mice; conditions: topical, 48 hours during telogen
Experimental: as §1
To determine whether Ldha expression patterns correlate with activity of the Ldh enzyme, a colorimetric-based enzymatic assay was used to assess Ldh activity capacity in situ. Typically performed on protein lysates or aliquots with a plate reader, the Ldh activity assay was adapted to work in situ on frozen tissue sections. […]
as §2

HFSCs = assay: Metabolomic analysis of lactate on HFSCs isolated from treated skin; format: in vivo, mice; conditions: topical application, treated skin for 48 hours
Experimental: as §1, §2

[1] = topical treatment of animals in telogen (day 50)

How did the “acceleration of the hair cycle” value (hair cycle; [1]) turn out when `N#C/C(=C\c1cn(-c2ccccc2)c2ccccc12)C(=O)O` [UK-5099, (E)-2-Cyano-3-(1-phenyl-1H-indol-3-yl)acrylic acid] was run?
Its value is “robust acceleration of the hair cycle”.

And the “proliferation of the interfollicular epidermis” value (hair cycle; [1])?
The value was “minor hyperproliferation of the interfollicular epidermis”.

And the “skin pathology, hair cycle stage” value (hair cycle; topical, 20 μM, at 8 weeks)?
Its value is “enter an accelerated anagen”.

And the “full anagen, indicated by full coat of hair, time of treatment” value (hair cycle; topical, 20 μM, mice)?
Its value is 14 days.

And the “pigmentation and hair growth, indicative of entry into anagen, time of treatment” value (hair cycle; topical, 20 μM, mice)?
Its value is 8 days.

And the “quantification of the hair cycle, time to acceleration” value (hair cycle; topical, at least 6 pairs of animals, vehicle vs UK-5099)?
The value was 6 to 9 days.

What about the “Ldh activity in HFSCs and interfollicular epidermis” value (Ldh) of the same compound?
The value was “increased Ldh activity; also recorded: Ldh enzyme activity also seen in interfollicular epidermis”.

What about the “total levels of lactate in sorted HFSCs” value (HFSCs) of the same compound?
Its value is “increases total levels of lactate”.
